{"source": "the supplement of paper PMC10307832", "experiment_in_all_cases": "relative viability (nuclei count vs DMSO), 5 days (fraction); higher = more cells survive", "key": {"201T": {"tested_on": "201T", "summary_of_the_method": "(§1)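 Relative viability was taken as the ratio of nuclei in treated wells to nuclei in vehicle wells. Lung cancer cell lines in 1536-well plates received compounds by pin tool one day after seeding, either one drug alone or a fixed anchor-drug dose plus five library-drug doses (not always all listed) in √10 steps. Nuclei were counted on 4× images after 5 days of treatment, and values are medians of duplicate plates.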"}, "BEN": {"tested_on": "BEN", "summary_of_the_method": "as §1"}, "EMC-BAC-2": {"tested_on": "EMC-BAC-2", "summary_of_the_method": "as §1"}, "HARA": {"tested_on": "HARA", "summary_of_the_method": "as §1"}, "HCC-44": {"tested_on": "HCC-44", "summary_of_the_method": "as §1"}, "LCLC-103H": {"tested_on": "LCLC-103H", "summary_of_the_method": "as §1"}, "LOU-NH91": {"tested_on": "LOU-NH91", "summary_of_the_method": "as §1"}, "NCI-H1395": {"tested_on": "NCI-H1395", "summary_of_the_method": "as §1"}, "NCI-H1993": {"tested_on": "NCI-H1993", "summary_of_the_method": "as §1"}, "NCI-H2023": {"tested_on": "NCI-H2023", "summary_of_the_method": "as §1"}, "NCI-H2087": {"tested_on": "NCI-H2087", "summary_of_the_method": "as §1"}}}
{"smiles": "Cc1sc2c(c1C)C(c1ccc(Cl)cc1)=N[C@@H](CC(=O)OC(C)(C)C)c1nnc(C)n1-2", "note": "[JQ1] + O=C(c1cc(Cc2n[nH]c(=O)c3ccccc23)ccc1F)N1CCN(C(=O)C2CC2)CC1 [Olaparib] (partner 8 µM)", "values": [{"measurement": "relative viability", "setting": "201T; first compound 0.04 µM", "value": 0.871}, {"measurement": "relative viability", "setting": "201T; first compound 0.4 µM", "value": 0.613}, {"measurement": "relative viability", "setting": "201T; first compound 1.265 µM", "value": 0.498}, {"measurement": "relative viability", "setting": "201T; first compound 4 µM", "value": 0.347}, {"measurement": "relative viability", "setting": "BEN; first compound 0.04 µM", "value": 1.02}, {"measurement": "relative viability", "setting": "BEN; first compound 0.1265 µM", "value": 0.76}, {"measurement": "relative viability", "setting": "BEN; first compound 0.4 µM", "value": 0.671}, {"measurement": "relative viability", "setting": "BEN; first compound 1.265 µM", "value": 0.346}, {"measurement": "relative viability", "setting": "BEN; first compound 4 µM", "value": 0.243}, {"measurement": "relative viability", "setting": "EMC-BAC-2; first compound 0.04 µM", "value": 0.447}, {"measurement": "relative viability", "setting": "EMC-BAC-2; first compound 0.1265 µM", "value": 0.433}, {"measurement": "relative viability", "setting": "EMC-BAC-2; first compound 0.4 µM", "value": 0.391}, {"measurement": "relative viability", "setting": "EMC-BAC-2; first compound 1.265 µM", "value": 0.32}, {"measurement": "relative viability", "setting": "EMC-BAC-2; first compound 4 µM", "value": 0.259}, {"measurement": "relative viability", "setting": "HARA; first compound 0.04 µM", "value": 0.739}, {"measurement": "relative viability", "setting": "HARA; first compound 0.1265 µM", "value": 0.484}, {"measurement": "relative viability", "setting": "HARA; first compound 0.4 µM", "value": 0.321}, {"measurement": "relative viability", "setting": "HARA; first compound 1.265 µM", "value": 0.308}, {"measurement": "relative viability", "setting": "HARA; first compound 4 µM", "value": 0.18}, {"measurement": "relative viability", "setting": "HCC-44; first compound 0.04 µM", "value": 0.978}, {"measurement": "relative viability", "setting": "HCC-44; first compound 0.1265 µM", "value": 1.03}, {"measurement": "relative viability", "setting": "HCC-44; first compound 0.4 µM", "value": 0.893}, {"measurement": "relative viability", "setting": "HCC-44; first compound 1.265 µM", "value": 0.851}, {"measurement": "relative viability", "setting": "HCC-44; first compound 4 µM", "value": 0.442}, {"measurement": "relative viability", "setting": "LCLC-103H; first compound 0.04 µM", "value": 0.789}, {"measurement": "relative viability", "setting": "LCLC-103H; first compound 0.1265 µM", "value": 0.714}, {"measurement": "relative viability", "setting": "LCLC-103H; first compound 0.4 µM", "value": 0.605}, {"measurement": "relative viability", "setting": "LCLC-103H; first compound 1.265 µM", "value": 0.528}, {"measurement": "relative viability", "setting": "LCLC-103H; first compound 4 µM", "value": 0.432}, {"measurement": "relative viability", "setting": "LOU-NH91; first compound 0.04 µM", "value": 0.911}, {"measurement": "relative viability", "setting": "LOU-NH91; first compound 0.1265 µM", "value": 0.769}, {"measurement": "relative viability", "setting": "LOU-NH91; first compound 0.4 µM", "value": 0.647}, {"measurement": "relative viability", "setting": "LOU-NH91; first compound 1.265 µM", "value": 0.488}, {"measurement": "relative viability", "setting": "LOU-NH91; first compound 4 µM", "value": 0.421}, {"measurement": "relative viability", "setting": "NCI-H1395; first compound 0.04 µM", "value": 0.489}, {"measurement": "relative viability", "setting": "NCI-H1395; first compound 0.1265 µM", "value": 0.452}, {"measurement": "relative viability", "setting": "NCI-H1395; first compound 0.4 µM", "value": 0.449}, {"measurement": "relative viability", "setting": "NCI-H1395; first compound 1.265 µM", "value": 0.378}, {"measurement": "relative viability", "setting": "NCI-H1395; first compound 4 µM", "value": 0.356}, {"measurement": "relative viability", "setting": "NCI-H1993; first compound 0.04 µM", "value": 0.922}, {"measurement": "relative viability", "setting": "NCI-H1993; first compound 0.1265 µM", "value": 0.994}, {"measurement": "relative viability", "setting": "NCI-H1993; first compound 0.4 µM", "value": 1.1}, {"measurement": "relative viability", "setting": "NCI-H1993; first compound 1.265 µM", "value": 0.807}, {"measurement": "relative viability", "setting": "NCI-H1993; first compound 4 µM", "value": 0.584}, {"measurement": "relative viability", "setting": "NCI-H2023; first compound 0.04 µM", "value": 0.442}, {"measurement": "relative viability", "setting": "NCI-H2023; first compound 0.1265 µM", "value": 0.342}, {"measurement": "relative viability", "setting": "NCI-H2023; first compound 0.4 µM", "value": 0.207}, {"measurement": "relative viability", "setting": "NCI-H2023; first compound 1.265 µM", "value": 0.104}, {"measurement": "relative viability", "setting": "NCI-H2023; first compound 4 µM", "value": 0.0832}, {"measurement": "relative viability", "setting": "NCI-H2087; first compound 0.04 µM", "value": 0.503}, {"measurement": "relative viability", "setting": "NCI-H2087; first compound 0.1265 µM", "value": 0.509}, {"measurement": "relative viability", "setting": "NCI-H2087; first compound 0.4 µM", "value": 0.646}, {"measurement": "relative viability", "setting": "NCI-H2087; first compound 1.265 µM", "value": 0.381}, {"measurement": "relative viability", "setting": "NCI-H2087; first compound 4 µM", "value": 0.297}]}
